{
  "source": "patent US4698419A",
  "about": "“Hexapeptide” (Vsesojuzny Kardiologichesky Nauchny Tsentr Akademii …, priority 1984, dated 1987)",
  "key": {"[1]": {"system": "acute hepatitis induced by D-galactosamine hydrochloride", "assay": "Acute hepatitis induced by D-galactosamine hydrochloride in mice, plasma enzymes", "assay_type": "in vivo, male mice of the line Balb C", "conditions": "for Concentration of alanine transaminase / Concentration of glutamatedehydrogenase: mouse blood plasma, D-galactosamine hydrochloride 700 mg/kg i.p., hexapeptide 100 μg/kg or prednisolone 5 mg/kg hypodermally, repeated after 6 hours", "description": "The study of a hepatoprotective effect of the hexapeptide according to the present invention was carried out in comparison with prednisolone on male mice of the line Balb C.\nThe development of acute hepatitis was induced in mice subjected to a 12-hours' starving by means of D-galactosamine hydrochloride which was administered intraperitoneally diluted in 0.1 ml of a physiological solution in the dose of 700 mg/kg. The control group of animals was administered intraperitoneally with 0.1 ml of a physiological solution. The animals given D-galactosoamine hydrochloride were injected, immediately after its administration, with the hexapeptide according to the present invention (100 μg/kg), prednisolone (5 mg/kg) or a physiological solution (0.1 ml) hypodermally. Repeated injections of the test preparations were made after 6 hours. Each of the groups consisted of 12 animals. The mice were slaughtered by decapitation, blood was collected and in its plasma concentrations of alanine transaminase and glutametedehydrogenase were determined.\nThe statistical processing of the results obtained was effected using t-criterion. The certain value was regarded as the dirrerence at the level of 95% (at P<0.05)."}, "[2]": {"system": "acute liver injury induced by carbon tetrachloride", "assay": "Acute liver injury induced by carbon tetrachloride in rats, blood enzymes and lethality", "assay_type": "in vivo, male rats of the V-star line", "conditions": "for Lethality: comparison of the hexapeptide with somatostatin; for Number of rats survived after 48 hours: groups of 13; for Concentration of alanine transaminase / Concentration of glutamatedehydrogenase: rat blood, CCl4, repeated after 6, 24 and 30 hours", "description": "The hexapeptide according to the present invention was also studied on an experimental model of an acute liver injury in male rats of the V-star line induced by means of carbon tetrachloride. After a 12-hours' starvation the rats were given CCl4 in the concentration of […] diluted in olive oil intraperitoneally. After administration of CCl4 the rats were injected with the hexapeptide according to the present invention in different doses (10, 30, 100 and 300 μg/kg). Repeated injections of the hexapeptide according to the invention were effected after 6, 24, and 30 hours. The control group of animals was given, instead of the hexapeptide of this invention, a physiological solution (0.2 ml). All the test groups of animals consisted of 13 rats. Concentrations of alanine transaminase and glutamatedehydrogenase were determined in the rats blood.\nA statistical processing in the case of liver injury caused by carbon tetrachloride in respect of the enzymes was effected using t-criterion, while in respect of lethality--by means of .chi.^2 criterion."}, "Acute toxicity LD50": {"assay": "Acute toxicity LD50", "conditions": "in vivo"}, "[3]": {"assay": "Cell composition of the blood and basic hemodynamic characteristics in all experiments", "assay_type": "in vivo", "conditions": "all of the experiments with the hexapeptide"}, "Solubility of the powder": {"assay": "Solubility of the powder", "assay_type": "physicochemical", "description": "The hexapeptide according to the present invention comprises a white powder well soluble in distilled water, physiological solution, ethanol, insoluble in ether, ethylacetate, benzene. Melting point is 154°-156° C., (α)D^25 =+8.4 (with 0.5 H2 O)."}},
  "note": "No end group written: not given here.",
  "data": [
    {"compound": "C[C@]12C=CC(=O)C=C1CC[C@@H]1[C@@H]2[C@@H](O)C[C@@]2(C)[C@H]1CC[C@]2(O)C(=O)CO", "note": "[prednisolone, reference compound]", "values": [
      {"measurement": "Effect on the values of the studied parameters (alanine transaminase, glutamatedehydrogenase)", "setting": "[1]; D-galactosamine mice, prednisolone 5 mg/kg", "result": "a trend was observed towards reducing"},
      {"measurement": "Effect on the concentration of the enzymes", "setting": "[1]; conventionally employed parenteral dose", "result": "does not provide any pronounced effect"},
      {"measurement": "Concentration of alanine transaminase", "setting": "[1]", "result": "151.2 ± 14.3", "unit": "JU/e"},
      {"measurement": "Concentration of glutamatedehydrogenase", "setting": "[1]", "result": "104.5 ± 10.1", "unit": "JU/e"}
    ]},
    {"compound": "C[C@H](N)C(=O)NCC(=O)N[C@H]1CSSC[C@@H](C(=O)O)NC(=O)[C@H](CO)NC(=O)[C@H]([C@@H](C)O)NC(=O)[C@H](Cc2ccccc2)NC(=O)[C@H]([C@@H](C)O)NC(=O)[C@H](CCCCN)NC(=O)[C@H](Cc2c[nH]c3ccccc23)NC(=O)[C@H](Cc2ccccc2)NC(=O)[C@H](Cc2ccccc2)NC(=O)[C@H](CC(N)=O)NC(=O)[C@H](CCCCN)NC1=O", "note": "[somatostatin, reference compound]", "values": [
      {"measurement": "Lethality", "setting": "[2]", "result": 20, "unit": "%"},
      {"measurement": "Maximum effective dose", "setting": "[2]; comparison with the hexapeptide", "result": 1.5, "unit": "mg/kg"}
    ]},
    {"compound": "FAGFGR [hexapeptide of this invention, phenylalanyl-alanyl-glycyl-phenylalanyl-glycylarginine]", "values": [
      {"measurement": "Effect on the increase of concentrations of alanine transaminase", "setting": "[1]; D-galactosamine mice, 100 μg/kg", "result": "substantially fully blocked the increase"},
      {"measurement": "Reduction of the concentration of glutamatedehydrogenase", "setting": "[1]; D-galactosamine mice, 100 μg/kg, versus D-galactosamine + physiological solution", "result": 2, "unit": "times"},
      {"measurement": "Concentration of alanine transaminase", "setting": "[1]", "result": "115.4 ± 5.2", "unit": "JU/e"},
      {"measurement": "Concentration of glutamatedehydrogenase", "setting": "[1]", "result": "62.8 ± 4.9", "unit": "JU/e"},
      {"measurement": "Effect on both parameters (alanine transaminase, glutamatedehydrogenase)", "setting": "[2]; CCl4 rats, 10-300 μg/kg", "result": "lowers both parameters depending on the dose"},
      {"measurement": "Number of rats survived after 48 hours", "setting": "[2]; CCl4 rats, dose 10 μg/kg", "result": 6},
      {"measurement": "Number of rats survived after 48 hours", "setting": "[2]; CCl4 rats, dose 30 μg/kg", "result": 9},
      {"measurement": "Number of rats survived after 48 hours", "setting": "[2]; CCl4 rats, dose 100 μg/kg", "result": 13},
      {"measurement": "Number of rats survived after 48 hours", "setting": "[2]; CCl4 rats, dose 300 μg/kg", "result": 13},
      {"measurement": "Lethal cases (%)", "setting": "[2]; CCl4 rats, dose 10 μg/kg", "result": 54, "unit": "%"},
      {"measurement": "Lethal cases (%)", "setting": "[2]; CCl4 rats, dose 30 μg/kg", "result": 30, "unit": "%"},
      {"measurement": "Lethal cases (%)", "setting": "[2]; CCl4 rats, dose 100 μg/kg", "result": 0, "unit": "%"},
      {"measurement": "Lethal cases (%)", "setting": "[2]; CCl4 rats, dose 300 μg/kg", "result": 0, "unit": "%"},
      {"measurement": "Lethal cases", "setting": "[2]; CCl4 rats, doses of 100 and 300 μg/kg", "result": "no lethal cases are observed"},
      {"measurement": "Lethality", "setting": "[2]", "result": 0, "unit": "%"},
      {"measurement": "Maximum effective dose", "setting": "[2]; comparison with somatostatin", "result": 0.1, "unit": "mg/kg"},
      {"measurement": "Maximum effective dose lower than that of somatostatin", "setting": "[2]; hexapeptide versus somatostatin", "result": 15, "unit": "times"},
      {"measurement": "Concentration of alanine transaminase", "setting": "[2]; 10 μg/kg", "result": "4141.5 ± 1094.8", "unit": "JU/e"},
      {"measurement": "Concentration of glutamatedehydrogenase", "setting": "[2]; 10 μg/kg", "result": "1962.0 ± 494.7", "unit": "JU/e"},
      {"measurement": "Concentration of alanine transaminase", "setting": "[2]; 30 μg/kg", "result": "3037.8 ± 580.8", "unit": "JU/e"},
      {"measurement": "Concentration of glutamatedehydrogenase", "setting": "[2]; 30 μg/kg", "result": "1487.3 ± 301.5", "unit": "JU/e"},
      {"measurement": "Concentration of alanine transaminase", "setting": "[2]; 100 μg/kg", "result": "2339.8 ± 333.4", "unit": "JU/e"},
      {"measurement": "Concentration of glutamatedehydrogenase", "setting": "[2]; 100 μg/kg", "result": "874.3 ± 118.3", "unit": "JU/e"},
      {"measurement": "Concentration of alanine transaminase", "setting": "[2]; 300 μg/kg", "result": "2110.1 ± 374.5", "unit": "JU/e"},
      {"measurement": "Concentration of glutamatedehydrogenase", "setting": "[2]; 300 μg/kg", "result": "603.3 ± 118.0", "unit": "JU/e"},
      {"measurement": "Acute toxicity LD50", "setting": "Acute toxicity LD50", "result": 120, "unit": "mg/kg"},
      {"measurement": "Changes on the part of basic hemodynamic characteristics", "setting": "[3]", "result": "no changes were observed"},
      {"measurement": "Changes on the part of the cell composition of the blood", "setting": "[3]", "result": "no changes were observed"},
      {"measurement": "Solubility", "setting": "Solubility of the powder; benzene", "result": "insoluble"},
      {"measurement": "Solubility", "setting": "Solubility of the powder; distilled water", "result": "well soluble"},
      {"measurement": "Solubility", "setting": "Solubility of the powder; ethanol", "result": "well soluble"},
      {"measurement": "Solubility", "setting": "Solubility of the powder; ether", "result": "insoluble"},
      {"measurement": "Solubility", "setting": "Solubility of the powder; ethylacetate", "result": "insoluble"},
      {"measurement": "Solubility", "setting": "Solubility of the powder; physiological solution", "result": "well soluble"}
    ]}
  ]
}
